Consider five compounds from PubChem BioAssay (NCI).

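Dose response: 5 concentrations. Exposure: 48 h. Format: 96-well plates. Endpoint: linear interpolation; highest concentration if not reached. GI50 marks 50% less growth. At the TGI there is no net growth.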

Among the test systems are OVCAR-3 ovarian; HL-60(TB) leukemia; HCC-2998 colon; NCI/ADR-RES ovarian; SK-MEL-28 melanoma; TK-10 renal; MALME-3M melanoma; SR leukemia; NCI-H23 lung; NCI-H522 lung.
Holding throughout (assay): DTP human tumour cell line panel, 48 h

Take `CC1=C(CC(=O)c2cccc([N+](=O)[O-])c2)C(=O)c2ccccc2C1=O`: the GI50 – broadly, the concentration that inhibits growth by half – with OVCAR-3 ovarian is 2.82 µM; with HL-60(TB) leukemia, 2.88 µM; with HCC-2998 colon, 38 µM; with NCI/ADR-RES ovarian it was 3.38 µM; in the assay on SK-MEL-28 melanoma, 3.54 µM; in the assay with TK-10 renal it was 39.7 µM. Further, the GI50 in the assay with MALME-3M melanoma is 4.95 µM; in the assay with SR leukemia it was 3.21 µM; in the assay with NCI-H23 lung it was 9.12 µM; in the assay on NCI-H522 lung it was 2.97 µM. Besides, the TGI (in general, the concentration giving total growth inhibition) is 9.34 µM in the assay with OVCAR-3 ovarian; 7.8 µM in the assay with HL-60(TB) leukemia; above 100 µM in the assay with HCC-2998 colon; 20.6 µM in the assay with NCI/ADR-RES ovarian; 13.9 µM with SK-MEL-28 melanoma; 85.8 µM in the assay on TK-10 renal. In addition, the TGI amounted to 18.3 µM in the assay on MALME-3M melanoma, 12.6 µM in the assay with SR leukemia, 36.9 µM in the assay with NCI-H23 lung and 8.84 µM in the assay on NCI-H522 lung.
Turning to `CC(=O)NCc1cccc(C#Cc2cncnc2Nc2ccc(OCc3cccc(F)c3)c(Cl)c2)c1`, the GI50 in the assay on OVCAR-3 ovarian was 11.6 µM; in the assay on HL-60(TB) leukemia it was 7.76 µM; in the assay on HCC-2998 colon it was 9.04 µM; with NCI/ADR-RES ovarian, 7.76 µM; in the assay with SK-MEL-28 melanoma, 19.8 µM; with TK-10 renal, 1.97 µM. The GI50 was 19.4 µM with MALME-3M melanoma, above 25 µM in the assay on SR leukemia, 14.1 µM with NCI-H23 lung and 6.55 µM in the assay on NCI-H522 lung. The TGI was above 25 µM in the assay with OVCAR-3 ovarian; above 22.5 µM with HL-60(TB) leukemia; above 25 µM in the assay with HCC-2998 colon; above 25 µM in the assay with NCI/ADR-RES ovarian; above 25 µM in the assay on SK-MEL-28 melanoma; above 20.2 µM with TK-10 renal. The TGI was above 25 µM in the assay with MALME-3M melanoma, above 25 µM in the assay with SR leukemia, above 25 µM in the assay with NCI-H23 lung and above 22.4 µM in the assay on NCI-H522 lung.
`COc1cc2nc(-c3cc(F)ccc3O)nc(N[C@@H]3CNC[C@H]3C(C)(C)O)c2cc1OC`: the GI50 in the assay with OVCAR-3 ovarian was 1.9 µM; in the assay on HL-60(TB) leukemia, 1.78 µM; with HCC-2998 colon, 1.92 µM; in the assay with NCI/ADR-RES ovarian, 2.31 µM; with SK-MEL-28 melanoma, 1.86 µM; in the assay on TK-10 renal it was 1.94 µM. Further, the GI50 in the assay with MALME-3M melanoma is 1.78 µM; in the assay on SR leukemia it was 1.27 µM; in the assay on NCI-H23 lung, 1.67 µM; in the assay on NCI-H522 lung, 1.67 µM. Also, the TGI in the assay on OVCAR-3 ovarian was 3.62 µM; in the assay on HL-60(TB) leukemia, 4.2 µM; in the assay with HCC-2998 colon, 3.47 µM; in the assay with NCI/ADR-RES ovarian, 6.09 µM; in the assay on SK-MEL-28 melanoma, 3.41 µM; in the assay with TK-10 renal, 5.68 µM. Besides, the TGI with MALME-3M melanoma was found to be 3.24 µM; in the assay on SR leukemia, 3.62 µM; in the assay on NCI-H23 lung, 3.42 µM; in the assay on NCI-H522 lung, 3.11 µM.
For the compound `Cc1cc(N(CCCNc2ccnc3cc(Cl)ccc23)Cc2ccco2)nc(N2CCN(C)CC2)n1`, the GI50 is 2.87 µM in the assay on OVCAR-3 ovarian; 2.06 µM in the assay on HL-60(TB) leukemia; 1.98 µM in the assay with HCC-2998 colon; 4.13 µM in the assay with NCI/ADR-RES ovarian; 1.74 µM with SK-MEL-28 melanoma; 2.08 µM in the assay with TK-10 renal. In addition, the GI50 in the assay with MALME-3M melanoma was 1.83 µM; in the assay with SR leukemia it was 2.08 µM; in the assay with NCI-H23 lung, 5.52 µM; in the assay with NCI-H522 lung, 3.62 µM. Besides, the TGI was 12.1 µM in the assay with OVCAR-3 ovarian; 4.37 µM in the assay on HL-60(TB) leukemia; 4.88 µM with HCC-2998 colon; 18.8 µM in the assay on NCI/ADR-RES ovarian; 3.41 µM in the assay with SK-MEL-28 melanoma; 4.82 µM in the assay with TK-10 renal. Moreover, the total growth inhibition concentration (TGI) with MALME-3M melanoma was determined as 3.5 µM; with SR leukemia it was 5.62 µM; in the assay with NCI-H23 lung, 22.1 µM; in the assay on NCI-H522 lung, 14.4 µM.
Consider `Cc1cc(C)nc(SC2=C(Nc3cc(Cl)ccc3O)C(=O)N(Cc3ccccc3)C2=O)n1`, for which the GI50 with OVCAR-3 ovarian was 18.8 µM; with HL-60(TB) leukemia, 33.3 µM; in the assay on HCC-2998 colon, above 160 µM; in the assay with NCI/ADR-RES ovarian, above 160 µM; in the assay with SK-MEL-28 melanoma, 42.3 µM; in the assay with TK-10 renal it was 53.9 µM. Besides, the GI50 was 39.4 µM in the assay with MALME-3M melanoma, 18.6 µM in the assay on SR leukemia, 113 µM in the assay with NCI-H23 lung and 17.4 µM in the assay on NCI-H522 lung. The TGI is 53.2 µM in the assay on OVCAR-3 ovarian; 70 µM in the assay with HL-60(TB) leukemia; above 160 µM with HCC-2998 colon; above 160 µM in the assay on NCI/ADR-RES ovarian; 148 µM in the assay on SK-MEL-28 melanoma; above 160 µM in the assay with TK-10 renal. Moreover, the TGI was 99.7 µM with MALME-3M melanoma, 70.6 µM in the assay with SR leukemia, above 160 µM in the assay on NCI-H23 lung and above 160 µM with NCI-H522 lung.
